One assay addresses T1, human 15-PGDH (Homo sapiens, UniProt P15428).
T1 construct: purchased R&D System 5660-DH
T1 sequence (P15428 1-266): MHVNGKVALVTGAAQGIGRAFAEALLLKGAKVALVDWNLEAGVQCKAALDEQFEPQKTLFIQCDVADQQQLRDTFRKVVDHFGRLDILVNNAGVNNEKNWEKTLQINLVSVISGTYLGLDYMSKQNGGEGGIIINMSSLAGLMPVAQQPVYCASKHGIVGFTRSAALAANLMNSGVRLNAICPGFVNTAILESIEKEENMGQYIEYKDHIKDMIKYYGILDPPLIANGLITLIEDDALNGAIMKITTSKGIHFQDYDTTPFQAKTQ
Kind of assay: Evaluation of 15-PGDH inhibitory activity (fluorescence enzyme assay, NAD+/PGE2). Type of assay: biochemical. To be noted: human 15-PGDH enzyme, fluorescence Vmax. The procedure: 15-PGDH inhibition activity of Example compounds was measured as follows. 6.7 ng of human 15-PGDH (R&D System# 5660-DH) enzyme (10 µL) was added to a black 96 well plate, 60 µL of buffer (50 mM Tris-HCl, pH 7.5, 0.01% Tween 20) was added, and 10 µL of 200 µM β-Nicotinamide adenine dinucleotide sodium salt (Sigma, Cat# N0632-5G) was added. 10 µL of (10x) compound solution in DMSO was added and reacted for 10 minutes at room temperature.

In another assay the test system is A549 cells. Kind of assay: Measurement of PGE2-increasing activity in A549 cells (IL-1β stimulated, PGE2 quantified in supernatant). Type of assay: cell-based. To be noted: Homo sapiens, 24 h; concentration of 1 µM of each compound; IL-1β treated A549 cells; read-out: Increased PGE2 production in A549 cells. The essentials:
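PGE2 secreted into the supernatant was measured by immunoassay 24 h after treatment. Before treatment, A549 cells were cultured 24 h in 10% FBS F12K, washed, and placed in serum-free medium containing compound (DMSO 0.1% final) plus or minus IL-1β, incubated at 37 °C, 5% CO2.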

The results in this text go back to patent EP4653437A2 (Innovo Therapeutics Inc., priority 2023, dated 2024).

What is called IC50 is the concentration that inhibits the measured activity by half. A lower IC50 goes with inhibition by little substance.

Structures are written as SMILES.

At human 15-PGDH, `O=C(c1cnn2c(-c3ccccc3)cccc12)N1CC2CCC1CC2` [Example 228, (2-azabicyclo[2.2.2]octan-2-yl)(7-phenylpyrazolo[1,5-a]pyridin-3-yl)methanone] showed an IC50 of no more than 0.1 µM. In the assay with A549 cells, the fold induction at 1 µM was less than 1.5.

Regarding `O=C1NCCc2ccc(-c3cccc4c(C(=O)N5CCC(F)CC5)cnn34)cc21` [Example 154, 7-(3-(4-fluoropiperidine-1-carbonyl)pyrazolo[1,5-a]pyridin-7-yl)-3,4-dihydroisoquinolin-1(2H)-one], the concentration for half-maximal inhibition (IC50) against human 15-PGDH is no more than 0.1 µM. Besides, the fold induction at 1 µM in the assay with A549 cells is greater than 1.5.

Take `Cn1nccc1-c1cc(-c2cccc3c(C(=O)N4CCCCC4)cnn23)cc(N2CC(O)C2)n1` [Example 357, (7-(2-(3-hydroxyazetidin-1-yl)-6-(1-methyl-1H-pyrazol-5-yl)pyridin-4-yl)pyrazolo[1,5-a]pyridin-3-yl)(piperidin-1-yl)methanone]: the half-maximal inhibitory concentration (IC50) on human 15-PGDH is no more than 0.1 µM. Also, the fold induction at 1 µM in the assay on A549 cells was greater than 1.5.

The compound `O=C(Cc1cncnc1)Nc1cncc(-c2cccc3c(C(=O)N4CCCCC4)cnn23)c1` [Example 403, N-(5-(3-(piperidine-1-carbonyl)pyrazolo[1,5-a]pyridin-7-yl)pyridin-3-yl)-2-(pyrimidin-5-yl)acetamide] displayed an IC50 against human 15-PGDH of no more than 0.1 µM. In the assay with A549 cells, the fold induction at 1 µM was greater than 1.5.

`O=C(c1cnn2c(NCc3ccc(Cl)cc3)cccc12)N1CCCCC1` [Example 238, [7-[(4-chlorophenyl)methylamino]pyrazolo[1,5-a]pyridin-3-yl]-(1-piperidyl)methanone]: the IC50 at human 15-PGDH is no more than 0.1 µM. In addition, the fold induction at 1 µM in the assay on A549 cells was greater than 1.5.

Consider `O=C(c1cncc(-c2cccc3c(C(=O)N4CCCCC4)cnn23)c1)N1CCC2(CC1)COC2` [Example 226, 2-oxa-7-azaspiro[3.5]nonan-7-yl-[5-[3-(piperidine-1-carbonyl)pyrazolo[1,5-a]pyridin-7-yl]-3-pyridyl]methanone], for which the IC50 at human 15-PGDH was no more than 0.1 µM. Moreover, in the assay on A549 cells, the fold induction at 1 µM is greater than 1.5.

As for `CN1CCc2ccc(-c3cccc4c(C(=O)N5CCCCC5)cnn34)cc2C1=O` [Example 132, 2-methyl-7-(3-(piperidine-1-carbonyl)pyrazolo[1,5-a]pyridin-7-yl)-3,4-dihydroisoquinolin-1(2H)-one], the IC50 at human 15-PGDH is no more than 0.1 µM. In addition, the fold induction at 1 µM in the assay on A549 cells was greater than 1.5.

Consider `O=C(c1cncc(-c2cccc3c(C(=O)N4CCCCC4)cnn23)c1)N1CC2(CC(O)C2)C1` [Example 225, (6-hydroxy-2-azaspiro[3.3]heptan-2-yl)-[5-[3-(piperidine-1-carbonyl)pyrazolo[1,5-a]pyridin-7-yl]-3-pyridyl]methanone], for which the half-maximal inhibitory concentration (IC50) against human 15-PGDH is no more than 0.1 µM. In the assay with A549 cells, the fold induction at 1 µM was greater than 1.5.

On human 15-PGDH, `Nc1noc2cc(-c3cccc4c(C(=O)N5CCCCC5)cnn34)ccc12` [Example 320, [7-(3-amino-1,2-benzoxazol-6-yl)pyrazolo[1,5-a]pyridin-3-yl]-(1-piperidyl)methanone] displayed a 50% inhibitory concentration (IC50) of no more than 0.1 µM. Besides, the fold induction at 1 µM in the assay on A549 cells is greater than 1.5.

Consider `O=C(c1cnn2c(-c3cc(F)cc(Cl)c3)cccc12)N1CCCCC1` [Example 279, (7-(3-chloro-5-fluorophenyl)pyrazolo[1,5-a]pyridin-3-yl)(piperidin-1-yl)methanone], for which, on human 15-PGDH, the IC50 was no more than 0.1 µM. In the assay on A549 cells, the fold induction at 1 µM is less than 1.5.

For the compound `O=C1NCc2cc(-c3cccc4c(C(=O)N5CCCCC5)cnn34)ccc21` [Example 143, 5-(3-(piperidine-1-carbonyl)pyrazolo[1,5-a]pyridin-7-yl)isoindolin-1-one], the half-maximal inhibitory concentration (IC50) on human 15-PGDH is no more than 0.1 µM. Also, the fold induction at 1 µM in the assay on A549 cells was greater than 1.5.

On to `O=C(c1cnn2c(-c3ccc(N4CC5CCC4CC5)nc3)cccc12)N1CCCCC1` [Example 216, (7-(6-(2-azabicyclo[2.2.2]octan-2-yl)pyridin-3-yl)pyrazolo[1,5-a]pyridin-3-yl)(piperidin-1-yl)methanone], for which the IC50 at human 15-PGDH is no more than 0.1 µM. In the assay on A549 cells, the fold induction at 1 µM is greater than 1.5.

At human 15-PGDH, `O=C1NCc2ccc(-c3cccc4c(C(=O)N5CCC6(CCC6)C5)cnn34)cc21` [Example 391, 6-(3-(6-azaspiro[3.4]octane-6-carbonyl)pyrazolo[1,5-a]pyridin-7-yl)isoindolin-1-one] registered a 50% inhibitory concentration (IC50) of no more than 0.1 µM. In addition, the fold induction at 1 µM in the assay on A549 cells was greater than 1.5.

With `COCCNC(=O)c1cncc(-c2cccc3c(C(=O)N4CCCCC4)cnn23)c1` [Example 45, N-(2-methoxyethyl)-5-(3-(piperidine-1-carbonyl)pyrazolo[1,5-a]pyridin-7-yl)nicotinamide], the IC50 on human 15-PGDH was no more than 0.1 µM. Besides, the fold induction at 1 µM in the assay with A549 cells is greater than 1.5.

Compound `CS(=O)(=O)Nc1ccc(-c2cccc3c(C(=O)N4CCCCC4)cnn23)cn1` [Example 112, N-(5-(3-(piperidine-1-carbonyl)pyrazolo[1,5-a]pyridin-7-yl)pyridin-2-yl)methanesulfonamide] came in with an IC50 at human 15-PGDH of no more than 0.1 µM. The fold induction at 1 µM in the assay on A549 cells was greater than 1.5.

At human 15-PGDH, `O=C(c1cnn2c(-c3ccc(N4CCOCC4)nc3)cccc12)N1CCCCC1` [Example 108, (7-(6-morpholinopyridin-3-yl)pyrazolo[1,5-a]pyridin-3-yl)(piperidin-1-yl)methanone] displayed an IC50 of no more than 0.1 µM. Also, the fold induction at 1 µM in the assay on A549 cells was greater than 1.5.

With `O=C(O)c1ccc(-c2cccc3c(C(=O)N4CCCCC4)cnn23)cc1` [Example 10, 4-(3-(piperidine-1-carbonyl)pyrazolo[1,5-a]pyridin-7-yl)benzoic acid], the IC50 on human 15-PGDH is no more than 0.1 µM. Besides, the fold induction at 1 µM in the assay on A549 cells is less than 1.5.

On to `Cn1nc2cc(-c3cccc4c(C(=O)N5CCCCC5)cnn34)ccn2c1=O` [Example 252, 2-methyl-7-(3-(piperidine-1-carbonyl)pyrazolo[1,5-a]pyridin-7-yl)-[1,2,4]triazolo[4,3-a]pyridin-3(2H)-one], for which the IC50 on human 15-PGDH was no more than 0.1 µM. For the same compound, the fold induction at 1 µM in the assay with A549 cells was greater than 1.5.
